Experiments:
ANC1 = biological target: T1, ANC1 (synthetic construct, UniProt Z9HSK4K2R8); experiment: NADH coupled pyrophosphate release assay; assay type: biochemical; settings: 1 mM substrate, 0.5 mM ATP, 10 mM MgCl2, pH 7.4, 30 °C
T1 construct: resurrected ancestral A-domain, N-terminal His6-SUMO, C-terminal STREP tag, co-expressed with Tcp13 in E. coli BL21(DE3); with MbtH-like protein Tcp13 (Actinoplanes teichomyceticus)

ANC2 (ANC2int) = biological target: T2, ANC2 (ANC2int) (synthetic construct, UniProt Z9RCC4OUL6); experiment: NADH coupled pyrophosphate release assay; assay type: biochemical; settings: 1 mM substrate, 0.5 mM ATP, 10 mM MgCl2, pH 7.4, 30 °C
T2 construct: resurrected ancestral A-domain, N-terminal His6-SUMO, C-terminal STREP tag, co-expressed with Tcp13 in E. coli BL21(DE3); with MbtH-like protein Tcp13 (Actinoplanes teichomyceticus)

SMILES	NADH coupled pyrophosphate release assay (ANC1)	NADH coupled pyrophosphate release assay (ANC2 (ANC2int))
N[C@@H](C(=O)O)c1ccc(O)cc1 [D-Hpg]	with a fourfold preference for the L-form	
CC(C)C[C@@H](N)C(=O)O [D-Leu]		ANC2 and ANC3 were both selective for Leu
CC(C)C[C@H](N)C(=O)O [L-Leu]		ANC2 and ANC3 were both selective for Leu

— article PMC10687080, “Resurrecting ancestral antibiotics: unveiling the origins of modern lipid II targeting glycopeptides” (Nature Communications, 2023)
